Assay [1] has as its target Tyrosine-protein kinase JAK1 (Homo sapiens, UniProt P23458). Description: (§1) JAK Enzyme Assay: The activity of the isolated recombinant JAK1 and JAK2 kinase domain was measured by monitoring phosphorylation of a peptide derived from JAK3 ([…] fluorescently labeled on the N-terminus with 5-carboxyfluorescein) using the Caliper LabChip® technology (Caliper Life Sciences, Hopkinton, Mass.). […] Reactions were incubated at 22° C. in 384-well polypropylene microtiter plates for 30 minutes and then stopped by addition of 25 μL of an EDTA containing solution (100 mM HEPES buffer (pH 7.2), 0.015% Brij-35, 150 mM EDTA), resulting in a final EDTA concentration of 50 mM. After termination of the kinase reaction, the proportion of phosphorylated product was determined as a fraction of total peptide substrate using the Caliper LabChip® 3000 according to the manufacturer's specifications.

Assay [2] addresses Tyrosine-protein kinase JAK2 (Homo sapiens, UniProt O60674). Described as §1.

As a reminder, the Ki is the equilibrium dissociation constant of an inhibitor or competing ligand from its target.

Chain of Tyrosine-protein kinase JAK1 (P23458 whole entry, the tested form may be a part): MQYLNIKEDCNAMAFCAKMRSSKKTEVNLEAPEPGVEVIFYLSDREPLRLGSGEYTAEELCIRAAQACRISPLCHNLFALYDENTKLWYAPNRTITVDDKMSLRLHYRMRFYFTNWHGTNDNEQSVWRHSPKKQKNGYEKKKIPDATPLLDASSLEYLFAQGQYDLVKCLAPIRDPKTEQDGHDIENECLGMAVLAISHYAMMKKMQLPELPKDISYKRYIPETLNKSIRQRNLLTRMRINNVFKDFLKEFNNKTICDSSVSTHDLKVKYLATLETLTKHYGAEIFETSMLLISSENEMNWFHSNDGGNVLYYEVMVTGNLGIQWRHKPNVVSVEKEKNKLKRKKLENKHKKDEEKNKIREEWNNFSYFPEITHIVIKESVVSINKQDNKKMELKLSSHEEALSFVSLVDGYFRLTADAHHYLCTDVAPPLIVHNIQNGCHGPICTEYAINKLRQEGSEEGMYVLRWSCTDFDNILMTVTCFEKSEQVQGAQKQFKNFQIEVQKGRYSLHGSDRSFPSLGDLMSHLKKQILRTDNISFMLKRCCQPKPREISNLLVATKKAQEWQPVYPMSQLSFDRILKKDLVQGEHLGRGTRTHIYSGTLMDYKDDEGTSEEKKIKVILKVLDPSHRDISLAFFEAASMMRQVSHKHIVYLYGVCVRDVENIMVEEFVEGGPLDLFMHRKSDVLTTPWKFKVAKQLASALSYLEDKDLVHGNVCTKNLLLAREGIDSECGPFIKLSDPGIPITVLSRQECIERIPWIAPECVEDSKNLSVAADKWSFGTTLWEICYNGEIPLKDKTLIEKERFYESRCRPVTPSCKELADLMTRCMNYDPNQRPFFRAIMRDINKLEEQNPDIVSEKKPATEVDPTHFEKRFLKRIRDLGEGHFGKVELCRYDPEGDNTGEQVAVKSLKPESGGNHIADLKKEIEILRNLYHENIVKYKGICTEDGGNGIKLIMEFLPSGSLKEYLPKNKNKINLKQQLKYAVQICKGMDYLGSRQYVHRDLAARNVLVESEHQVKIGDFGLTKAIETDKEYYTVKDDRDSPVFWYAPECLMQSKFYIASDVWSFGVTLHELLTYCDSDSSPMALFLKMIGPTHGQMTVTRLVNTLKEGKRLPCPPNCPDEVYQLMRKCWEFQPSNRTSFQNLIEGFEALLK
Chain of Tyrosine-protein kinase JAK2 (O60674 whole entry): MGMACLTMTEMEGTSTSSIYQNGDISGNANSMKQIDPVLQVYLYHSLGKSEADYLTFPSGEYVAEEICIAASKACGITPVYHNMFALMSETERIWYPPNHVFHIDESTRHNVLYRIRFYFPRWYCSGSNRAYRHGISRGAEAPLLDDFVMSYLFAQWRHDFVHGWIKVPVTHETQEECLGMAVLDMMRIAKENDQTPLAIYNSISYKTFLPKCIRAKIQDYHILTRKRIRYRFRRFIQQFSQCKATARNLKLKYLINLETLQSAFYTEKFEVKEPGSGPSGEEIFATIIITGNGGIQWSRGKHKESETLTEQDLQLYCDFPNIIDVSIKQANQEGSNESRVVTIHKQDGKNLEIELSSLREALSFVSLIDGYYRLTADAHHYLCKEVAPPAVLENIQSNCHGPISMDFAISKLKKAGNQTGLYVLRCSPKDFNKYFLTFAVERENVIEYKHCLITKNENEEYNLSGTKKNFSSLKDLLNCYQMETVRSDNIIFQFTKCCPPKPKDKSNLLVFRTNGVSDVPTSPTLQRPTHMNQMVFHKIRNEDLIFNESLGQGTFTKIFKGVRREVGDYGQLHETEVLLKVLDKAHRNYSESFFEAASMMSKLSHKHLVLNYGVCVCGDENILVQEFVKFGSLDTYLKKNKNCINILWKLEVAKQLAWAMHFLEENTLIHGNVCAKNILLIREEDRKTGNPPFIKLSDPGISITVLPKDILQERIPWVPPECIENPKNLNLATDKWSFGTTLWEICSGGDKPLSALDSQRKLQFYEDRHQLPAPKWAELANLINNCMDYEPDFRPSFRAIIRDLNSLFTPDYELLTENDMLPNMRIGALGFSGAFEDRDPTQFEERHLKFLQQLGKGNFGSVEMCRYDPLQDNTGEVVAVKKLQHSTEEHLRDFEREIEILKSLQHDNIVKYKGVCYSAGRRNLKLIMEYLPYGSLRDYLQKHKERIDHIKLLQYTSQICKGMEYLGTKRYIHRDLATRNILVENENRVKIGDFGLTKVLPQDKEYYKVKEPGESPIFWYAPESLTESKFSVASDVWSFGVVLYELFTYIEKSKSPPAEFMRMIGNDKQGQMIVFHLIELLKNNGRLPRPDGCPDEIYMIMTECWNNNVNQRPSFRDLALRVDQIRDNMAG

For `CN1CCC(n2cc(NC(=O)c3c(N)nn4cccnc34)c(-c3cc(Cl)ccc3OC(F)F)n2)CC1`, the Ki in assay [1] turned out to be 0.76 nM.

Turning to `Nc1nn2cccnc2c1C(=O)Nc1cn(CC(=O)N2CC[C@@H](O)C2)nc1-c1cc(Cl)ccc1OC(F)F`, the Ki in assay [2] came out at 0.13 nM.

As to `N#C[C@H]1CCCN(C2CCN(C(=O)Cn3cc(NC(=O)c4cnn5cccnc45)c(-c4cc(Cl)ccc4OC(F)F)n3)CC2)C1`, the Ki came to 0.3 nM in assay [1] and 0.76 nM in assay [2].

Regarding `CCOC(=O)CCN1CCN(C(=O)Cn2cc(NC(=O)c3cnn4cccnc34)c(-c3cc(Cl)ccc3OC(F)F)n2)CC1`, in assay [1], the Ki turned out to be 0.49 nM.

Turning to `C[N+](C)(CCCc1ccccc1)C1CCN(C(=O)Cn2cc(NC(=O)c3cnn4cccnc34)c(-c3cc(Cl)ccc3OC(F)F)n2)CC1`, the Ki amounted to 1.21 nM in assay [1] and 2.9 nM in assay [2].

In the case of `CN(CC1(C#N)CC1)C1CCN(C(=O)Cn2cc(NC(=O)c3cnn4cccnc34)c(-c3cc(Cl)ccc3OC(F)F)n2)CC1`, in assay [2], the Ki worked out at 0.64 nM.

For `O=C(Nc1cn(CC(=O)N2CCC(N3CC[S+]([O-])CC3)CC2)nc1-c1cc(Cl)ccc1OC(F)F)c1cnn2cccnc12`, the Ki was 0.23 nM in assay [1] and 0.63 nM in assay [2].

Turning to `CN(C)C1CCN(C(=O)C2CCN(c3nc(-c4cc(Cl)ccc4OC(F)F)c(NC(=O)c4cnn5cccnc45)s3)CC2)CC1`, the Ki in assay [1] came out at 0.89 nM; in assay [2], 0.86 nM.
